Data as given in patent US8450336B2, “Use of D-serine derivatives for the treatment of anxiety disorders” (priority 2006, dated 2013).
Where “and” joins values, the source holds several entries; their conditions need not be identical. Equal values may be shown once.

Key:
[1] = test system: Sprague-Dawley rats; experiment: Conditioned Emotional Response (CER) assay; type: in vivo; settings: for Total number lever press: 40 min test session; for Total number lever press / Suppression ratio (SR): mean±SEM; for Suppression ratio (SR): at least 10 rats, *p<0.05 vs vehicle; for Efficacy in the CER assay (effect on SR), in words: rat, in vivo; for Magnitude of the SR effect compared with diazepam: diazepam 2 mg/kg i.p
Protocol: Male, Sprague-Dawley rats of approximate body weight 350-450 g were placed on a restricted food diet (45 min free access per day) and trained over a 1-2 week period to press a lever for food reward (45 mg food pellet). […] Test session length was for a 40 min test period, and test sessions were run 5 days/week. Once stable response rates were attained, 2 periods of a 2 min light and tone cue (conditioning stimulus, CS) was introduced into the test session. The 2 min CS was terminated by a 0.5 s unavoidable footshock of 0.3-0.8 mA intensity (UCS). The first CS-UCS was at approximately 10 min (range 5-15 min) and the second CS-UCS pairing at approximately 30 min (range 25-35 min) within the test session. On drug test days, and occasional training days, footshock was not delivered. The number of lever presses recorded during the two 2 min CS periods (response A), and the number of lever presses recorded in the 2 min periods immediately prior to the two CS periods (response B) were measured and a suppression ratio (SR) was calculated according to the formula (A/A+B). Thus a SR of 0 reflects no responding during the CS periods, i.e. a complete suppression of lever pressing for food by the CS, and a SR of 0.5 reflects equivalent responding during both the CS and 2 min period prior to CS, i.e. no suppression of lever pressing for food by the CS. Thus in drug untreated animals, SR value was typically 0-0.1 and established anti-anxiety agents such as diazepam increased this value to 0.4-0.5 (for literature examples see Stanhope and Dourish (1996) Psychopharmacol. 128: 293-303; Mirza et al (2005) Psychopharmacol. 180: 159-168). In addition to SR, the total number of lever presses emitted by the animals over the 40 min test session was measured.
Drug testing was conducted according to a repeated measures design, with each animal receiving each dose of drug treatment or vehicle control in a balanced design. Typically drug testing was conducted on Tuesdays and Fridays, with the animals drug untreated but otherwise run for baseline purposes. In each experiment a standard dose of diazepam (2 mg/kg i.p) was included as a positive control.

[2] = test system: CD-1 mice; experiment: Marble Burying Assay; type: in vivo; settings: for Number of marbles buried: 22 marbles, 30 min, mean±SEM, at least 8 mice
Protocol: (§1) Male, experimentally naïve CD-1 mice of body weight range 25-35 g were used in these studies. Following a pretreatment with test drug or vehicle control the animals were singly placed within a Perspex chamber of dimension (48 cm×28 cm×20 cm; L×W×H) containing fresh sawdust bedding onto which 22 marbles were evenly spaced on the surface. After a 30 min period, the mice were removed and the number of marbles that were covered by at least ⅔rd by sawdust were counted as buried. Typically mice will bury a significant proportion of the marbles, probably to hide the potential threat posed by the marbles which represent a novel stimulus to the animal. […] One interpretation for this effect is that diazepam reduces the threat perceived to the animal by the close presence of the marbles (Broekkamp et al, 1986 Eur. J. Pharmacol. 126: 223-229; Nicolas et al, 2006 Eur. J. Pharmacol. 547; 106-115). In a separate group of sex, age and weight matched CD-1 mice, equivalent doses of test compound were evaluated on motor function using a fixed speed (16 r.p.m) rotorod assay. The best score from 3 attempts was recorded, with the maximum test duration of 60 s. Testing was conducted at 40 min post injection, i.e. approximate mid-point of the marble-burying assay.
Drug testing was run according to a between subjects design. […] The (S)-enantiomer of Lacosamide was ineffective in this assay.

[3] = test system: CD-1 mice; settings: at doses with no obvious effect on general motor function; literature; cited from earlier work
[4] = test system: Sprague-Dawley rats; settings: drug untreated animals typically 0-0.1; literature examples; cited from earlier work
[5] = test system: CD-1 mice; experiment: Fixed speed (16 r.p.m) rotorod assay of motor function; type: in vivo; settings: median of at least 4 mice, maximum score=60 s, 40 min post injection
Protocol: as §1

[6] = dose 2 (2 mg/kg i.p, positive control), 2 mg/kg
[7] = dose 3 (mg/kg), i.p or oral route
[8] = dose 10 (mg/kg), i.p or oral route
[9] = dose 30 (mg/kg), i.p or oral route

CC(=O)NC(COC(F)F)C(=O)NCc1ccccc1 (stereo not drawn)
melting point: 173.3 °C

COC[C@H](NC(C)=O)C(=O)NCc1ccccc1 (single isomer, unassigned) [(S)-enantiomer of Lacosamide, reference compound]
Total number lever press ([1]; dose 30 (mg/kg)): 1403 ± 158
Suppression ratio (SR) ([1]; dose 30 (mg/kg)): 0.06 ± 0.03
Efficacy in the CER assay (effect on SR), in words [1]: ineffective
Efficacy in the marble burying assay, in words ([2]; mouse, in vivo): ineffective

CN1C(=O)CN=C(c2ccccc2)c2cc(Cl)ccc21 [Diazepam, reference compound]
Total number lever press [1, 6]: 899 ± 146 and 1015 ± 155 and 1151 ± 138 and 1239 ± 183
Suppression ratio (SR) [1, 6]: 0.39 ± 0.04* and 0.44 ± 0.03* and 0.32 ± 0.07*
Effect of anti-anxiety drugs on marbles buried by mice, in words [3]: reduce the number of marbles buried
SR value typically reached with established anti-anxiety agents [4]: 0.4-0.5
Rotorod score ([5]; dose 0.3): 60 s
Rotorod score ([5]; dose 1): 60 s
Rotorod score ([5]; dose 3): 40 s
Number of marbles buried ([2]; dose 0.3, i.p or oral route): 12.6 ± 1.4
Number of marbles buried ([2]; dose 1, i.p or oral route): 9.4 ± 1.7
Number of marbles buried ([2]; dose 2, i.p or oral route): 2.2 ± 1.2
Number of marbles buried [2, 7]: 2.0 ± 0.8
Efficacy in the marble burying assay, in words ([2]; mouse, in vivo): produced a similar profile

CC(=O)N[C@H](COC(F)F)C(=O)NCc1ccccc1 [Example 19.1, (2R)-2-(Acetylamino)-N-benzyl-3-(difluoromethoxy)propanamide]
Magnitude of the SR effect compared with diazepam [1]: equivalent to diazepam
Total number lever press ([1]; dose 3 (mg/kg)): 1169 ± 145
Suppression ratio (SR) ([1]; dose 3 (mg/kg)): 0.16 ± 0.03
Total number lever press ([1]; dose 10 (mg/kg)): 1093 ± 169
Suppression ratio (SR) ([1]; dose 10 (mg/kg)): 0.15 ± 0.05
Total number lever press ([1]; dose 30 (mg/kg)): 724 ± 135
Suppression ratio (SR) ([1]; dose 30 (mg/kg)): 0.38 ± 0.04*
Efficacy in the CER assay (effect on SR), in words [1]: active in increasing the SR in a dose-related manner
melting point: 186.9 °C
Rotorod score ([5]; dose 3): 60 s
Rotorod score ([5]; dose 10): 60 s
Rotorod score ([5]; dose 30): 13 s
Number of marbles buried [2, 7]: 17.0 ± 1.1
Number of marbles buried [2, 8]: 9.7 ± 2.3
Number of marbles buried [2, 9]: 2.3 ± 2.0
Efficacy in the marble burying assay, in words ([2]; mouse, in vivo): active in decreasing marble burying in a dose-related manner

CC(=O)N[C@H](COC(F)F)C(=O)NCc1ccc(F)cc1 [Example 20.1, (2R)-2-(Acetylamino)-3-(difluoromethoxy)-N-(4-fluorobenzyl)propanamide]
Magnitude of the SR effect compared with diazepam [1]: equivalent to diazepam
Total number lever press ([1]; dose 3 (mg/kg)): 1188 ± 95
Suppression ratio (SR) ([1]; dose 3 (mg/kg)): 0.17 ± 0.06
Total number lever press ([1]; dose 10 (mg/kg)): 1170 ± 98
Suppression ratio (SR) ([1]; dose 10 (mg/kg)): 0.28 ± 0.07*
Total number lever press ([1]; dose 20 (mg/kg)): 849 ± 78
Suppression ratio (SR) ([1]; dose 20 (mg/kg)): 0.33 ± 0.06*
Total number lever press ([1]; dose 30 (mg/kg)): 587 ± 84
Suppression ratio (SR) ([1]; dose 30 (mg/kg)): 0.43 ± 0.05*
Efficacy in the CER assay (effect on SR), in words [1]: active in increasing the SR in a dose-related manner
melting point: 162.7 °C
Rotorod score ([5]; dose 3): 60 s
Rotorod score ([5]; dose 10): 60 s
Rotorod score ([5]; dose 30): 60 s
Number of marbles buried [2, 7]: 15.0 ± 1.2
Number of marbles buried [2, 8]: 14.9 ± 0.9
Number of marbles buried [2, 9]: 10.3 ± 1.5
Efficacy in the marble burying assay, in words ([2]; mouse, in vivo): active in decreasing marble burying in a dose-related manner

CC(=O)N[C@H](COC(F)F)C(=O)NCc1ccc(Cl)cc1 [Example 23.1, (2R)-2-(acetylamino)-N-(4-chlorobenzyl)-3-(difluoromethoxy)propanamide]
Magnitude of the SR effect compared with diazepam [1]: equivalent to diazepam
Total number lever press ([1]; dose 3 (mg/kg)): 1091 ± 169
Suppression ratio (SR) ([1]; dose 3 (mg/kg)): 0.09 ± 0.04
Total number lever press ([1]; dose 10 (mg/kg)): 1034 ± 131
Suppression ratio (SR) ([1]; dose 10 (mg/kg)): 0.17 ± 0.04*
Total number lever press ([1]; dose 30 (mg/kg)): 578 ± 79
Suppression ratio (SR) ([1]; dose 30 (mg/kg)): 0.26 ± 0.04*
Efficacy in the CER assay (effect on SR), in words [1]: active in increasing the SR in a dose-related manner
Rotorod score ([5]; dose 3): 60 s
Rotorod score ([5]; dose 10): 60 s
Rotorod score ([5]; dose 30): 60 s
Number of marbles buried [2, 7]: 15.8 ± 0.8
Number of marbles buried [2, 8]: 12.3 ± 1.2
Number of marbles buried [2, 9]: 2.0 ± 0.7
Efficacy in the marble burying assay, in words ([2]; mouse, in vivo): active in decreasing marble burying in a dose-related manner

COC[C@@H](NC(C)=O)C(=O)NCc1ccccc1 [Lacosamide, (+)-(2R)-2-(acetylamino)-N-benzyl-3-methoxypropanamide, reference compound]
Magnitude of the SR effect compared with diazepam [1]: equivalent to diazepam
Total number lever press ([1]; dose 3 (mg/kg)): 1166 ± 185
Suppression ratio (SR) ([1]; dose 3 (mg/kg)): 0.16 ± 0.07
Total number lever press ([1]; dose 10 (mg/kg)): 1121 ± 138
Suppression ratio (SR) ([1]; dose 10 (mg/kg)): 0.18 ± 0.08
Total number lever press ([1]; dose 30 (mg/kg)): 727 ± 123
Suppression ratio (SR) ([1]; dose 30 (mg/kg)): 0.36 ± 0.07*
Efficacy in the CER assay (effect on SR value), in words ([1]; doses 3-30 mg/kg i.p.): significantly increasing the SR value
Rotorod score ([5]; dose 3): 60 s
Rotorod score ([5]; dose 10): 60 s
Rotorod score ([5]; dose 30): 60 s
Number of marbles buried [2, 7]: 16.8 ± 0.8
Number of marbles buried [2, 8]: 18.0 ± 0.7
Number of marbles buried [2, 9]: 12.4 ± 1.4
Efficacy in the marble burying assay, in words ([2]; oral doses of 3-30 mg/kg, compared to vehicle pretreated controls): significantly reducing the number of marbles buried
